Source: PubChem BioAssay (NCI)
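Protocol summary: plate cells (96-well), add compound at 5 concentrations, incubate 48 h, interpolate endpoints linearly. GI50 is the concentration that inhibits growth by half. TGI is the concentration that stops growth completely.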

Columns and labels:
Test in all cases: NCI-60 cell line screen, 48 h
[1] = system: MDA-MB-231 breast
[2] = system: CCRF-CEM leukemia
[3] = system: PC-3 prostate
[4] = system: RXF 393 renal
[5] = system: HOP-92 NSCLC
[6] = system: K-562 leukemia
[7] = system: ACHN renal
[8] = system: SN12C renal
[9] = system: HCT-15 colon
[10] = system: UACC-62 melanoma

SMILES | GI50 [1] [µM] | TGI [1] [µM] | GI50 [2] [µM] | TGI [2] [µM] | GI50 [3] [µM] | TGI [3] [µM] | GI50 [4] [µM] | TGI [4] [µM] | GI50 [5] [µM] | TGI [5] [µM] | GI50 [6] [µM] | TGI [6] [µM] | GI50 [7] [µM] | TGI [7] [µM] | GI50 [8] [µM] | TGI [8] [µM] | GI50 [9] [µM] | TGI [9] [µM] | GI50 [10] [µM] | TGI [10] [µM]
O=C(c1cccs1)c1c(C(F)(F)F)n([O-])c2cc(C(F)(F)F)ccc2[n+]1=O | 0.177 | 0.345 | 0.12 | 0.361 | 0.136 | 0.281 | 0.184 | 0.351 | 0.172 | 0.342 | 0.0303 | 0.101 | 0.159 | 0.303 | 0.2 | 0.408 | 0.175 | 0.349 | 0.462 | 1.28
O=C1C(Br)=C(c2ccccc2)C(c2ccccc2)=C1c1ccccc1 | – | 6.05 | – | 2.02 | – | 16.2 | – | 3.92 | – | 3.84 | – | 9.93 | – | 6.51 | – | 3.85 | – | 4.03 | – | 5.73
COc1cc(/C=C2\C[C@H]3[C@@H]4CC=C5C[C@@H](OC(C)=O)CC[C@]5(C)[C@H]4CC[C@]3(C)[C@H]2OC(C)=O)ccc1OCCCn1ccnc1 | 8.2 | 16.6 | 11.3 | 40.9 | 11.5 | 29.1 | 1.78 | 10.4 | 9.45 | 20 | 5.59 | 19.7 | 8.49 | 15.9 | 8.84 | 21.9 | 7.5 | 16 | 8.81 | 16.1
Nc1c(C(=O)Nc2cccc3ccccc23)sc2nc3c(cc12)CCCCC3 | 1.27 | > 50 | 0.692 | > 50 | 1.07 | > 50 | 0.992 | > 50 | 0.375 | > 50 | 0.216 | > 50 | 2.59 | > 50 | 2.26 | > 50 | 0.309 | > 50 | 0.219 | > 50
C/C(=C\c1ccn(-c2ccc(N)cc2C(F)(F)F)n1)[C@@H]1C[C@@H]2O[C@]2(C)CCC[C@H](C)[C@H](O)[C@@H](C)C(=O)C(C)(C)[C@@H](O)CC(=O)O1 | 1.51 | > 11.1 | 0.413 | > 11.1 | 0.406 | > 11.1 | 0.395 | 4.21 | 1.27 | > 11.1 | 0.356 | > 11.1 | 0.512 | > 11.1 | 1.57 | > 11.1 | 0.429 | > 11.1 | 0.488 | > 11.1
Cc1cc(S(=O)(=O)/N=C(\N)n2nc(C)c(C)c2C)c(SCc2ccccc2)cc1Cl | > 100 | > 100 | 4.49 | > 100 | 6.04 | > 100 | 58.6 | > 100 | 3.17 | > 100 | 4.15 | > 100 | > 100 | > 100 | > 100 | > 100 | 7.1 | > 100 | > 100 | > 100
